Measurements published in US5001118A, “Method for preventing senescence and increasing bone mass” (priority 1986, dated 1991).

Key:
[1] = tested on: ICR type mice; experiment: Biochemical inspection of blood serum, daily oral administration; format: in vivo, mouse (ICR type); parameters: key: .dwnarw.: Decrease below control; →: No difference from control; .uparw.: Increase above control
Excerpt: The results are compared below with respect to the following items with those obtained of the male- and female-groups using only the solvent without the present substance.

[2] = tested on: ICR type mice; experiment: Weight of internal organs, daily oral administration; format: in vivo, mouse (ICR type); parameters: key: .dwnarw.: Decrease below control; →: No difference from control; .uparw.: Increase above control
Procedure: Solutions obtained by dissolving the present substance, 24R,25-(OH)2 -D3 in a prescribed concentration in triglyceride of a fatty acid of 8 to 10 carbon atoms containing 1% of ethanol were administered respectively, orally, forcedly and daily to three male-groups and three female-groups of ICR type mice 5 weeks old at dosages of 10, 100, and 1,000 μg/kg.day. The results are compared below with respect to the following items with those obtained of the male- and female-groups using only the solvent without the present substance.

[3] = tested on: ICR type male mice; experiment: Acute toxicity, oral administration; format: in vivo; conditions: 100 mg/kg p.o.
Procedure: (§1) A test solution was prepared by dissolving the present substance, 24R,25-(OH)2 -D3, in ethanol and again dissolving the resultant ethanol solution in triglyceride ester of a fatty acid of 8 to 10 carbon atoms so that the ethanol concentration is 2%. Then, the test solution was orally administered (p.o.) at a dose of 100 mg/kg to a test group of 10 ICR type male mice (each weighing 25±3 g). For two weeks, the mice were kept under observation for sign of toxication. […] They were then sacrificed and subjected to biochemical blood inspection, anatomical observation, and histopathological inspection.

[4] = Acute toxicity, oral administration; format: in vivo; conditions: mouse, in vivo, po
Procedure: as §1

SMILES: C=C1CC[C@H](O)C/C1=C/C=C1\CCC[C@]2(C)[C@@H]([C@H](C)CC[C@@H](O)C(C)(C)O)CC[C@@H]12 [24R,25-(OH)2 -D3]
- A/G ([1]; female, 10 μg/kg): →
- ALP ([1]; female, 10 μg/kg): →
- Alb ([1]; female, 10 μg/kg): →
- BUN ([1]; female, 10 μg/kg): →
- Ca ([1]; female, 10 μg/kg): →
- GOT ([1]; female, 10 μg/kg): →
- GPT ([1]; female, 10 μg/kg): →
- Glu ([1]; female, 10 μg/kg): →
- I-P ([1]; female, 10 μg/kg): →
- LDH ([1]; female, 10 μg/kg): →
- T-Bil ([1]; female, 10 μg/kg): →
- T-CHO ([1]; female, 10 μg/kg): →
- T-P ([1]; female, 10 μg/kg): →
- A/G ([1]; female, 100 μg/kg): →
- ALP ([1]; female, 100 μg/kg): →
- Alb ([1]; female, 100 μg/kg): →
- BUN ([1]; female, 100 μg/kg): →
- Ca ([1]; female, 100 μg/kg): →
- GOT ([1]; female, 100 μg/kg): →
- GPT ([1]; female, 100 μg/kg): →
- Glu ([1]; female, 100 μg/kg): →
- I-P ([1]; female, 100 μg/kg): →
- LDH ([1]; female, 100 μg/kg): →
- T-Bil ([1]; female, 100 μg/kg): →
- T-CHO ([1]; female, 100 μg/kg): →
- T-P ([1]; female, 100 μg/kg): →
- A/G ([1]; female, 1000 μg/kg): →
- ALP ([1]; female, 1000 μg/kg): →
- Alb ([1]; female, 1000 μg/kg): →
- BUN ([1]; female, 1000 μg/kg): →
- Ca ([1]; female, 1000 μg/kg): →
- GOT ([1]; female, 1000 μg/kg): →
- GPT ([1]; female, 1000 μg/kg): →
- Glu ([1]; female, 1000 μg/kg): →
- I-P ([1]; female, 1000 μg/kg): →
- LDH ([1]; female, 1000 μg/kg): →
- T-Bil ([1]; female, 1000 μg/kg): →
- T-CHO ([1]; female, 1000 μg/kg): →
- T-P ([1]; female, 1000 μg/kg): →
- A/G ([1]; male, 10 μg/kg): →
- ALP ([1]; male, 10 μg/kg): →
- Alb ([1]; male, 10 μg/kg): →
- BUN ([1]; male, 10 μg/kg): →
- Ca ([1]; male, 10 μg/kg): →
- GOT ([1]; male, 10 μg/kg): →
- GPT ([1]; male, 10 μg/kg): →
- Glu ([1]; male, 10 μg/kg): →
- I-P ([1]; male, 10 μg/kg): →
- LDH ([1]; male, 10 μg/kg): →
- T-Bil ([1]; male, 10 μg/kg): →
- T-CHO ([1]; male, 10 μg/kg): →
- T-P ([1]; male, 10 μg/kg): →
- A/G ([1]; male, 100 μg/kg): →
- ALP ([1]; male, 100 μg/kg): →
- Alb ([1]; male, 100 μg/kg): →
- BUN ([1]; male, 100 μg/kg): →
- Ca ([1]; male, 100 μg/kg): →
- GOT ([1]; male, 100 μg/kg): →
- GPT ([1]; male, 100 μg/kg): →
- Glu ([1]; male, 100 μg/kg): →
- I-P ([1]; male, 100 μg/kg): →
- LDH ([1]; male, 100 μg/kg): →
- T-Bil ([1]; male, 100 μg/kg): →
- T-CHO ([1]; male, 100 μg/kg): →
- T-P ([1]; male, 100 μg/kg): →
- A/G ([1]; male, 1000 μg/kg): →
- ALP ([1]; male, 1000 μg/kg): →
- Alb ([1]; male, 1000 μg/kg): →
- BUN ([1]; male, 1000 μg/kg): .dwnarw.
- Ca ([1]; male, 1000 μg/kg): →
- GOT ([1]; male, 1000 μg/kg): →
- GPT ([1]; male, 1000 μg/kg): →
- Glu ([1]; male, 1000 μg/kg): .dwnarw.
- I-P ([1]; male, 1000 μg/kg): →
- LDH ([1]; male, 1000 μg/kg): .dwnarw.
- T-Bil ([1]; male, 1000 μg/kg): .dwnarw.
- T-CHO ([1]; male, 1000 μg/kg): →
- T-P ([1]; male, 1000 μg/kg): →
- Weight of adrenal gland ([2]; female, 10 μg/kg): →
- Weight of brain ([2]; female, 10 μg/kg): →
- Weight of heart ([2]; female, 10 μg/kg): →
- Weight of kidney ([2]; female, 10 μg/kg): →
- Weight of liver ([2]; female, 10 μg/kg): →
- Weight of lung ([2]; female, 10 μg/kg): →
- Weight of ovary ([2]; female, 10 μg/kg): →
- Weight of pituitary gland ([2]; female, 10 μg/kg): →
- Weight of spleen ([2]; female, 10 μg/kg): →
- Weight of thymus gland ([2]; female, 10 μg/kg): →
- Weight of uterus ([2]; female, 10 μg/kg): →
- Weight of adrenal gland ([2]; female, 100 μg/kg): →
- Weight of brain ([2]; female, 100 μg/kg): →
- Weight of heart ([2]; female, 100 μg/kg): →
- Weight of kidney ([2]; female, 100 μg/kg): →
- Weight of liver ([2]; female, 100 μg/kg): →
- Weight of lung ([2]; female, 100 μg/kg): →
- Weight of ovary ([2]; female, 100 μg/kg): →
- Weight of pituitary gland ([2]; female, 100 μg/kg): →
- Weight of spleen ([2]; female, 100 μg/kg): →
- Weight of thymus gland ([2]; female, 100 μg/kg): →
- Weight of uterus ([2]; female, 100 μg/kg): →
- Weight of adrenal gland ([2]; female, 1000 μg/kg): →
- Weight of brain ([2]; female, 1000 μg/kg): →
- Weight of heart ([2]; female, 1000 μg/kg): →
- Weight of kidney ([2]; female, 1000 μg/kg): →
- Weight of liver ([2]; female, 1000 μg/kg): →
- Weight of lung ([2]; female, 1000 μg/kg): →
- Weight of ovary ([2]; female, 1000 μg/kg): →
- Weight of pituitary gland ([2]; female, 1000 μg/kg): →
- Weight of spleen ([2]; female, 1000 μg/kg): →
- Weight of thymus gland ([2]; female, 1000 μg/kg): →
- Weight of uterus ([2]; female, 1000 μg/kg): →
- Weight of adrenal gland ([2]; male, 10 μg/kg): →
- Weight of brain ([2]; male, 10 μg/kg): →
- Weight of heart ([2]; male, 10 μg/kg): →
- Weight of kidney ([2]; male, 10 μg/kg): →
- Weight of liver ([2]; male, 10 μg/kg): →
- Weight of lung ([2]; male, 10 μg/kg): →
- Weight of pituitary gland ([2]; male, 10 μg/kg): →
- Weight of spleen ([2]; male, 10 μg/kg): →
- Weight of testis ([2]; male, 10 μg/kg): →
- Weight of thymus gland ([2]; male, 10 μg/kg): →
- Weight of adrenal gland ([2]; male, 100 μg/kg): →
- Weight of brain ([2]; male, 100 μg/kg): →
- Weight of heart ([2]; male, 100 μg/kg): →
- Weight of kidney ([2]; male, 100 μg/kg): →
- Weight of liver ([2]; male, 100 μg/kg): →
- Weight of lung ([2]; male, 100 μg/kg): →
- Weight of pituitary gland ([2]; male, 100 μg/kg): →
- Weight of spleen ([2]; male, 100 μg/kg): →
- Weight of testis ([2]; male, 100 μg/kg): →
- Weight of thymus gland ([2]; male, 100 μg/kg): →
- Weight of adrenal gland ([2]; male, 1000 μg/kg): →
- Weight of brain ([2]; male, 1000 μg/kg): →
- Weight of heart ([2]; male, 1000 μg/kg): →
- Weight of kidney ([2]; male, 1000 μg/kg): →
- Weight of liver ([2]; male, 1000 μg/kg): →
- Weight of lung ([2]; male, 1000 μg/kg): →
- Weight of pituitary gland ([2]; male, 1000 μg/kg): →
- Weight of spleen ([2]; male, 1000 μg/kg): →
- Weight of testis ([2]; male, 1000 μg/kg): →
- Weight of thymus gland ([2]; male, 1000 μg/kg): →
- sign of abnormality ([3]; 10 ICR male mice, two weeks): no sign of abnormality
- survival ([3]; 10 ICR male mice, two weeks): All of the mice survived
- biochemical blood inspection, anatomical observation, and histopathological inspection vs control ([3]; ICR male mice, after two weeks): not different at all
- LD50 at 336 h [4]: ≥ 100 mg/kg
